Where a SMILES comes first, the peptide text is derived from it. [ ]: non-standard residue; d: D form. ξ: configuration not given here. Aoe(9ξ) = N[C@@H](CCCCCC(=O)C1CO1)C(=O)O; dPip = O=C(O)[C@H]1CCCCN1
Experiments:
Type in all cases: cell-based, human
OE33 cells [1] = test: Epigenetic compound library screen (CellTiter-Glo, 72 h); settings: OE33, 6μM; for cytotoxicity at 6 µM: Homo sapiens, read-out: % cell killing /control
Description: (§1) We tested a 163 compound epigenetic library that consists of inhibitors and activators of epigenetic modifying enzymes (writers, erasers and readers). All compounds were dissolved in 100% DMSO and tested in duplicate at a nominal test concentration of 6μM. Wells with assay buffer containing DMSO served as negative controls. 1000 exponentially growing cells were seeded per well in 384-well micro-titer plates and incubated in the presence of compounds in a humidified environment at 37°C and 5% CO2. After 72 hours of treatment, cell viability was assessed by measuring ATP levels via bioluminescence (CellTiter-Glo, Promega). […] Curve fitting and statistical analyses are performed in GraphPad prism.

EAC47 cells [2] = test: as above; settings: EAC47, 6μM; for cytotoxicity at 6 µM: Homo sapiens, read-out: % cell killing /control; for cytotoxicity at 6 µM / % cell killing /control: 72 h
Description: as §1

Flo-1 cells [3] = test: as above; settings: Flo-1, 6μM; for cytotoxicity at 6 µM: Homo sapiens, read-out: % cell killing /control
Description: as §1

EAC42 cells [4] = test: Clonogenic survival assay
Description: (§2) Clonogenic assays were performed as described previously. […] Colony formation was evaluated 14 days after seeding. All experiments were performed in triplicates and two biological replicates. Statistical analyses were performed in GraphPad prism.

EAC47 cells [5] = test: Clonogenic survival assay
Description: as §2

EAC42 cells [6] = test: FDA library drug sensitivity testing (CellTiter-Glo, 72 h); settings: for sDSSmod: sDSSmod = DSSmod (patient cells) - DSSmod (normal cells)
Method in brief: (§3)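 1000 cells/well exposed 72 h at 37 °C to drugs in duplicate, top concentration 10μM over a 20,000-fold range; DMSO wells as negative controls. Viability by ATP bioluminescence (CellTiter-Glo). Curves scored with the modified drug sensitivity score (DSSmod/sDSSmod).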

EAC47 cells [7] = test: as above
Method in brief: as §3

[8] = test system: normal esophageal epithelium cell line EACN42; test: FDA library drug sensitivity testing (CellTiter-Glo, 72 h), normal control cells; design: key to DSS: modified drug sensitivity score (DSSmod) from dose-response curve fit; settings: EACN42 normal esophageal cells, 72 h; for EC50: cell viability (ATP), max test concentration 10μM; for DSS: drug sensitivity score
Method in brief: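 HPV E6-E7-immortalized normal human esophageal epithelial cells, 1000 per well, exposed 72 h at 37 °C to drugs in duplicate from 10μM top concentration across a 20,000-fold range. Viability by ATP bioluminescence; DMSO wells as negative control; curves scored with modified drug sensitivity score (DSSmod).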

SK-GT2 cells = test: FDA library drug sensitivity testing (CellTiter-Glo, 72 h); settings: SK-GT2; sDSSmod = DSSmod (patient cells) - DSSmod (normal cells)
Method in brief: as §3

Flo-1 cells [9] = test: as above; settings: Flo-1; sDSSmod = DSSmod (patient cells) - DSSmod (normal cells)
Description: OE33, OE19 and SKGT2 human esophageal adenocarcinoma cell lines were obtained from the European Collection of Cell Culture ([…]). Flo1, EAC42 and EAC47 cells were established in the Capobianco Laboratory. EAC42 and EAC47 human esophageal adenocarcinoma cell lines are derived from patients undergoing surgery at the Miller School of Medicine, University of Miami. The Capobianco laboratory obtained written informed consent from all patients and approval from the Institutional Research Ethics Committee.
Drug sensitivity testing (DST) was performed as described previously. […] Individual drugs were dissolved in 100% DMSO and tested in duplicates starting at a maximal test concentration of 10μM then over a 20,000-fold concentration range to generate dose response curves. Wells with assay buffer containing DMSO served as negative controls. 1000 exponentially growing cells were seeded per well in 384-well micro-titer plates and incubated in the presence of compounds in a humidified environment at 37°C and 5% CO2. After 72 hours of treatment, cell viability was assessed by measuring ATP levels via bioluminescence (CellTiter-Glo, Promega) according to manufactures recommendations. Interpretation of curve parameters was performed according to the modified drug sensitivity scoring (DSSmod) function developed by Swords et al. As a final step, the selective DSSmod (sDSSmod) for each drug in each patient screen is calculated according to the formula sDSSmod = DSSmod (patient cells)—DSSmod (normal cells). Given in this way, the sDSSmod incorporated information on each drug’s potency, efficacy, effect range and therapeutic index, making it possible to prioritize compounds over multiple parameters using a single numerical metric. In addition, this methodology allows us to rank compounds by cancer-selective efficacy for each individual patient. […] All calculations and scoring routines are implemented in MatLab and additional curve fitting and statistical analyses are performed in GraphPad prism.

OE33 cells [10] = test: as above; settings: OE33; sDSSmod = DSSmod (patient cells) - DSSmod (normal cells)
Method in brief: as §3

OE19 cells = test: as above; settings: sDSSmod = DSSmod (patient cells) - DSSmod (normal cells)
Method in brief: as §3

Nc1nc(=O)n([C@H]2C[C@H](O)[C@@H](CO)O2)cc1F [2'-Deoxy-5-fluorocytidine]
cytotoxicity at 6 µM (OE33 cells [1]): 65.2% | cytotoxicity at 6 µM (EAC47 cells [2]): 86.8%

CC(C)[C@H](C(=O)Nc1ccc(C(=O)NO)cc1)c1ccccc1 [(S)-HDAC-42]
cytotoxicity at 6 µM (OE33 cells [1]): 89.3% | cytotoxicity at 6 µM (EAC47 cells [2]): 76.5% | cytotoxicity at 6 µM (Flo-1 cells [3]): 84.6%

CC[C@@H]1C(=O)N(C)c2cnc(Nc3ccc(C(=O)NC4CCN(C)CC4)cc3OC)nc2N1C1CCCC1 [BI-2536]
cytotoxicity at 6 µM (OE33 cells [1]): 77.6% | cytotoxicity at 6 µM (EAC47 cells [2]): 39.5% | cytotoxicity at 6 µM (Flo-1 cells [3]): 95.9%

O=C(/C=C/c1cccc(C(=O)NO)c1)NO [CBHA]
% cell killing /control (EAC47 cells [2]): 20.30%

Cc1sc2c(c1C)C(c1ccc(Cl)cc1)=N[C@@H](CC(N)=O)c1nnc(C)n1-2 [CPI203]
sensitivity in words (EAC47 cells [2]): sensitivity | % cell killing /control (EAC47 cells [2]): 43.29% | % cell killing /control (Flo-1 cells [3]): 48.79%

COc1ccc(-c2nc(N3CCOCC3)c3sc(CN(C)c4ncc(C(=O)NO)cn4)cc3n2)cn1 [CUDC-907]
cytotoxicity at 6 µM (OE33 cells [1]): 99.4% | cytotoxicity at 6 µM (EAC47 cells [2]): 115% | cytotoxicity at 6 µM (Flo-1 cells [3]): 99.7%

N.N.[Cl][Pt][Cl] [Cisplatin]
clonogenic survival (EAC42 cells [4]; EAC42, 10μM cisplatin for 24h): 89.19% | clonogenic survival (EAC42 cells [4]; EAC42, 50μM cisplatin for 24h): 50.1% | clonogenic survival (EAC47 cells [5]; EAC47, 10μM cisplatin for 24h): 95.75% | clonogenic survival (EAC47 cells [5]; EAC47, 50μM cisplatin for 24h): 28.64% | reduction of cell survival in words (EAC42 cells [6]; EAC42, concentration of 10μM): did not result in a reduction of cell survival | reduction of cell survival in words (EAC47 cells [7]; EAC47, concentration of 10μM): did not result in a reduction of cell survival | treatment response in words [8]: minimal treatment effects | EC50 [8]: 10 nM | DSS [8]: 0

CCN(CC)C(=S)SSC(=S)N(CC)CC [Disulfiram]
sDSSmod (SK-GT2 cells): 10.36 | sDSSmod (EAC42 cells [6]; EAC42): 7.112 | cytotoxicity at 6 µM (EAC47 cells [2]): 33.9% | DSS [8]: 0

Nc1ccccc1NC(=O)c1ccc(CNC(=O)OCc2cccnc2)cc1 [Entinostat (MS-275), Entinostat]
cytotoxicity at 6 µM (OE33 cells [1]): 76% | cytotoxicity at 6 µM (EAC47 cells [2]): 36.6% | cytotoxicity at 6 µM (Flo-1 cells [3]): 43.3%

Nc1ccn([C@@H]2O[C@H](CO)[C@@H](O)C2(F)F)c(=O)n1 [Gemcitabine]
clonogenic survival (EAC42 cells [4]; EAC42, 10nM gemcitabine for 2h, colonies after 14 days): 59.26% | clonogenic survival (EAC47 cells [5]; EAC47, 10nM gemcitabine for 2h, colonies after 14 days): 63.28% | sDSSmod (Flo-1 cells [9]): -5 | sDSSmod (OE33 cells [10]): 9.443 | sDSSmod (EAC42 cells [6]; EAC42): 14.66 | EC50 (EAC42 cells [6]; Homo sapiens, EAC42, assay not stated explicitly, taken as DST screen, read-out: calculated EC50): 6.6 nM | sDSSmod (EAC47 cells [7]; EAC47, sDSSmod = DSSmod (patient cells) - DSSmod (normal cells)): 8.407 | EC50 (EAC47 cells [7]; Homo sapiens, EAC47, assay not stated explicitly, taken as DST screen, read-out: calculated EC50): 10.7 nM | sDSSmod (OE19 cells): -16.819 | EC50 [8]: 320 nM | DSS [8]: 17.72

CCN(CC)Cc1ccc2cc(COC(=O)Nc3ccc(C(=O)NO)cc3)ccc2c1 [Givinostat (ITF2357), Givinostat]
cytotoxicity at 6 µM (OE33 cells [1]): 87.7% | cytotoxicity at 6 µM (EAC47 cells [2]): 96.8% | cytotoxicity at 6 µM (Flo-1 cells [3]): 90.9%

Cn1cc(CNCC2CCN(c3ncc(C(=O)NO)cn3)CC2)c2ccccc21 [JNJ-26481585]
% cell killing /control (OE33 cells [1]): 99.54% | % cell killing /control (EAC47 cells [2]): 113.73% | % cell killing /control (Flo-1 cells [3]): 98.39%

O=C(/C=C/c1ccc(CN(CCO)CCc2c[nH]c3ccccc23)cc1)NO [LAQ824]
cytotoxicity at 6 µM (OE33 cells [1]): 99% | cytotoxicity at 6 µM (EAC47 cells [2]): 108% | cytotoxicity at 6 µM (Flo-1 cells [3]): 96.8%

Cc1cc(C)cc(C(=O)NOCCCCCC(=O)NO)c1 [LMK 235]
% cell killing /control (OE33 cells [1]): 80.31% | % cell killing /control (EAC47 cells [2]): 62.72%

O=C(CCCCC[C@@H]1NC(=O)[C@H]2CCCCN2C(=O)[C@H](Cc2ccccc2)NC(=O)[C@H](Cc2ccccc2)NC1=O)C1CO1 (some centres unmarked) [Trapoxin A] (cyclo(FF[dPip][Aoe(9ξ)]))
cytotoxicity at 6 µM (OE33 cells [1]): 98.9% | cytotoxicity at 6 µM (EAC47 cells [2]): 102% | cytotoxicity at 6 µM (Flo-1 cells [3]): 96.4%

CC(/C=C/C(=O)NO)=C\[C@@H](C)C(=O)c1ccc(N(C)C)cc1 [Trichostatin A]
% cell killing /control (OE33 cells [1]): 98.02% | % cell killing /control (EAC47 cells [2]): 109.49% | % cell killing /control (Flo-1 cells [3]): 96.32%

Reference: PMC6136712, “Ex vivo drug sensitivity testing as a means for drug repurposing in esophageal adenocarcinoma” (PLoS ONE, 2018)
